Measurements as given in publication PMC7516806, “Hybrid Antimicrobial Peptide Targeting Staphylococcus aureus and Displaying Anti-infective Activity in a Murine Model” (Frontiers in Microbiology, 2020).
No end group written: not given here.

Columns and labels:
E. coli K88 = conditions: MHB, 2–7 × 10^5 CFU/ml, 37°C, 24 h, no turbidity, at least three independent repeats
Excerpt: (§1) The bacterial strains Escherichia coli (E. coli) ATCC 25922, E. coli K88, E. coli K99, Pseudomonas aeruginosa (P. aeruginosa) ATCC 27853, Escherichia coli (E. coli) UB1005, Salmonella typhimurium 14028, Salmonella pullorum (S. pullorum) C7913, S. typhimurium C7731, S. aureus ATCC 29213, MRSA ATCC 43300, and S. aureus ATCC 25923 were obtained from the College of Veterinary Medicine, Northeast Agricultural University, China. Lactobacillus plantarum (L. plantarum) 8014, Lactobacillus rhamnosus (L. rhamnosus) 7469, L. rhamnosus 1.0911, L. rhamnosus 1.0936, and L. rhamnosus 1.0385 were obtained from the Key Laboratory of Food College, Northeast Agricultural University, China.
(§2) As in a previous study, the antimicrobial activities of the AMPs were investigated using a modified standard microtiter dilution method ([Dong et al., 2014]). The peptides were serially diluted with a solution containing 0.01% acetic acid and 0.2% bovine serum albumin (BSA, Sigma) in 96-well plates. The bacteria grew to the mid-log phase and then were dissolved in MHB at concentration of 2–7 × 10^5 CFU/ml. The peptides and bacterial solution were mixed in equal volume in a 37°C incubator for 24 h. […] Mueller-Hinton broth with microorganisms was used as the positive control, and the pure broth was used as the negative control. The experiment was repeated at least three times independently.

E. coli K99 = conditions: MHB, 2–7 × 10^5 CFU/ml, 37°C, 24 h, no turbidity, at least three independent repeats
Excerpt: as §1, §2

MRSA 43300 = type: cell-based, Staphylococcus aureus; conditions: MHB, 2–7 × 10^5 CFU/ml, 37°C, 24 h, no turbidity, at least three independent repeats
Excerpt: (§3) The experiment was repeated at least three times independently.

S. aureus 29213 [1] = assay: MIC, modified microtiter dilution; type: cell-based, Staphylococcus aureus; conditions: MHB, 2–7 × 10^5 CFU/ml, 37°C, 24 h, no turbidity, at least three independent repeats
Excerpt: as §3

S. aureus 25923 = assay: MIC, modified microtiter dilution; type: cell-based, Staphylococcus aureus; conditions: MHB, 2–7 × 10^5 CFU/ml, 37°C, 24 h, no turbidity, at least three independent repeats
Excerpt: as §3

[2] = system: human red blood cells (hRBCs); assay: Hemolysis assay; type: cell-based; conditions: 1.5 h, 37°C, absorbance 570 nm; 0.1% Triton X-100 positive control
Experimental: The cytotoxicity of peptides was determined by healthy human erythrocytes and the murine macrophage cell line RAW 264.7 via a hemolysis assay and MTT dye reduction assay, respectively ([Wang et al., 2018]). In the hemolysis assay, fresh hRBCs from healthy people were centrifuged for 5 min at 1,000 × g and then washed three times with PBS (pH = 7.2). The 100 μL erythrocyte suspension and peptides were incubated for 1.5 h in an incubator at 37°C. The 96-well plates were centrifuged at 1,000 × g for 5 min, and the supernatants were carefully aspirated. The absorbance at 570 nm indicated the leakage of hemoglobin. The hRBCs in the PBS sample was used as the negative control, and 0.1% Triton X-100 addition served as the positive control. In the MTT dye reduction assay, 1.0–2.0 × 10^5 cells were plated in 96-well plates and then treated with various concentrations of peptides for 4 h at 37°C in a 5% CO2 incubator. Subsequently, 50 μL of MTT was added to the plated cells at a final concentration of 0.5 mg/mL and incubated for 4 h. Then, the cells were centrifuged at 1000 × g for 5 min, and the supernatants were discarded. Formazan crystals were dissolved in 150 μL of DMSO, and the OD570 nm was measured using a microplate reader (TECAN GENios F129004; TECAN, Austria). The experiment was repeated three times independently.

S. aureus 29213 [3] = assay: MIC in the presence of physiological salts; type: cell-based, Staphylococcus aureus; conditions: three independent repeats, unit not given in Table 4
Experimental: as §3
The MIC of peptides was determined in the presence of salts at physiological concentrations (150 mM NaCl, 4.5 mM KCl, 6 μM NH4Cl, 8 μM ZnCl2, 1 mM MgCl2, 2 mM CaCl2, and 4 μM FeCl3) as described previously ([Dong et al., 2014]). All experiments were performed three times independently.

S. typhimurium 7731 = assay: MIC, modified microtiter dilution; type: cell-based, Salmonella typhimurium; conditions: MHB, 2–7 × 10^5 CFU/ml, 37°C, 24 h, no turbidity, at least three independent repeats
Excerpt: as §3

S. typhimurium 14028 = assay: MIC, modified microtiter dilution; type: cell-based, Salmonella typhimurium; conditions: MHB, 2–7 × 10^5 CFU/ml, 37°C, 24 h, no turbidity, at least three independent repeats
Excerpt: as §3

L. plantarum 8014 = assay: MIC, modified microtiter dilution; type: cell-based, Lactobacillus plantarum; conditions: 2–7 × 10^5 CFU/ml, 37°C, 24 h, no turbidity, at least three independent repeats
Excerpt: as §3

S. pullorum 7913 = assay: MIC, modified microtiter dilution; type: cell-based, Salmonella pullorum; conditions: MHB, 2–7 × 10^5 CFU/ml, 37°C, 24 h, no turbidity, at least three independent repeats
Excerpt: as §3

E. coli 25922 = assay: MIC, modified microtiter dilution; type: cell-based, Escherichia coli; conditions: MHB, 2–7 × 10^5 CFU/ml, 37°C, 24 h, lowest concentration with no turbidity, at least three independent repeats
Excerpt: as §3

E. coli UB1005 = assay: MIC, modified microtiter dilution; type: cell-based, Escherichia coli; conditions: MHB, 2–7 × 10^5 CFU/ml, 37°C, 24 h, no turbidity, at least three independent repeats
Excerpt: as §3

L. rhamnosus 1.0936 = assay: MIC, modified microtiter dilution; type: cell-based, Lactobacillus rhamnosus; conditions: 2–7 × 10^5 CFU/ml, 37°C, 24 h, no turbidity, at least three independent repeats
Excerpt: as §3

L. rhamnosus 1.0385 = assay: MIC, modified microtiter dilution; type: cell-based, Lactobacillus rhamnosus; conditions: 2–7 × 10^5 CFU/ml, 37°C, 24 h, no turbidity, at least three independent repeats
Excerpt: as §3

L. rhamnosus 1.0911 = assay: MIC, modified microtiter dilution; type: cell-based, Lactobacillus rhamnosus; conditions: 2–7 × 10^5 CFU/ml, 37°C, 24 h, no turbidity, at least three independent repeats
Excerpt: as §3

L. rhamnosus 7469 = assay: MIC, modified microtiter dilution; type: cell-based, Lactobacillus rhamnosus; conditions: 2–7 × 10^5 CFU/ml, 37°C, 24 h, no turbidity, at least three independent repeats
Excerpt: as §3

P. aeruginosa 27853 = assay: MIC, modified microtiter dilution; type: cell-based, Pseudomonas aeruginosa; conditions: MHB, 2–7 × 10^5 CFU/ml, 37°C, 24 h, no turbidity, at least three independent repeats
Excerpt: as §3

## RWWWLL-NH2 [Peptide S7]
E. coli K88
  MIC E. coli K88: 16 µM
E. coli K99
  MIC E. coli K99: 16 µM
MRSA 43300
  MIC MRSA 43300: 8 µM
S. aureus 29213 [1]
  MIC S. aureus 29213: 8 µM
S. aureus 25923
  MIC S. aureus 25923: 8 µM
[2]
  hemolytic activity against hRBCs: barely exhibited hemolysis effects
S. aureus 29213 [3]; 4 μM FeCl3
  MIC against S. aureus 29213, FeCl3: 8 µM
S. aureus 29213 [3]; 6 μM NH4Cl
  MIC against S. aureus 29213, NH4Cl: 8 µM
S. aureus 29213 [3]; 8 μM ZnCl2
  MIC against S. aureus 29213, ZnCl2: 4 µM
S. aureus 29213 [3]; 1 mM MgCl2
  MIC against S. aureus 29213, MgCl2: 8 µM
S. aureus 29213 [3]; 2 mM CaCl2
  MIC against S. aureus 29213, CaCl2: 16 µM
S. aureus 29213 [3]; 4.5 mM KCl
  MIC against S. aureus 29213, KCl: 8 µM
S. aureus 29213 [3]; 150 mM NaCl
  MIC against S. aureus 29213, NaCl: 8 µM
S. typhimurium 7731
  MIC S. typhimurium 7731: 16 µM
S. typhimurium 14028
  MIC S. typhimurium 14028: 32 µM
L. plantarum 8014
  MIC L. plantarum 8014: >64 µM
S. pullorum 7913
  MIC S. pullorum 7913: >64 µM
E. coli 25922
  MIC E. coli 25922: 16 µM
E. coli UB1005
  MIC E. coli UB1005: 16 µM
L. rhamnosus 1.0936
  MIC L. rhamnosus 1.0936: >64 µM
L. rhamnosus 1.0385
  MIC L. rhamnosus 1.0385: >64 µM
L. rhamnosus 1.0911
  MIC L. rhamnosus 1.0911: >64 µM
L. rhamnosus 7469
  MIC L. rhamnosus 7469: >64 µM
P. aeruginosa 27853
  MIC P. aeruginosa 27853: >64 µM
